Assay: xn = mol fraction of the nth substance listed
Conditions: for electrical conductivity: x2 = 0

OC[C@H]1O[C@H](O[C@H]2[C@H](O)[C@@H](O)C(O)O[C@@H]2CO)[C@H](O)[C@@H](O)[C@@H]1O (stereo partly drawn) + CCCCCCCCCCCCCCCC[N+](C)(C)C.[Br-] + O
viscosity [mPa·s], 100 kPa
Conditions | 298.15 K | 308.15 K | 318.15 K
x2 = 7.13e-06, x1 = 0.002703 | 1.07 | 0.885 | 0.734
x2 = 7.15e-06, x1 = 0.002359 | 1.048 | 0.867 | 0.719
x2 = 7.16e-06, x1 = 0.001637 | 1.002 | 0.829 | 0.688
x2 = 7.16e-06, x1 = 0.001964 | 1.023 | 0.846 | 0.702
x2 = 7.18e-06, x1 = 0.0009633 | 0.958 | 0.793 | 0.659
x2 = 7.18e-06, x1 = 0.001278 | 0.978 | 0.809 | 0.672
x2 = 1.423e-05, x1 = 0.002657 | 1.073 | 0.888 | 0.736
x2 = 1.424e-05, x1 = 0.002424 | 1.058 | 0.875 | 0.726
x2 = 1.428e-05, x1 = 0.001986 | 1.029 | 0.851 | 0.706
x2 = 1.43e-05, x1 = 0.001593 | 1.003 | 0.83 | 0.688
x2 = 1.433e-05, x1 = 0.001228 | 0.979 | 0.81 | 0.672
x2 = 1.435e-05, x1 = 0.0009418 | 0.96 | 0.795 | 0.659
x2 = 2.126e-05, x1 = 0.002693 | 1.08 | 0.894 | 0.74
x2 = 2.128e-05, x1 = 0.002482 | 1.066 | 0.882 | 0.73
x2 = 2.135e-05, x1 = 0.001972 | 1.032 | 0.854 | 0.707
x2 = 2.141e-05, x1 = 0.001636 | 1.01 | 0.835 | 0.692
x2 = 2.143e-05, x1 = 0.001347 | 0.99 | 0.819 | 0.678
x2 = 2.15e-05, x1 = 0.0008556 | 0.957 | 0.792 | 0.656

NCC(=O)O + CCCCCCCCCCCCCCCC[n+]1ccccc1.[Cl-] + O
308.15 K, 101 kPa
Conditions | electrical conductivity [S/m]
x1 = 2.018e-05 | 6.2e-05
x1 = 0.0002 | 0.000171
x1 = 0.0003639 | 0.000413
x1 = 0.0009182 | 0.00011
x1 = 0.001802 | 0.000292

NC(=O)CC[C@H](N)C(=O)O + CCCCCCCCCCCC[N+](C)(C)C.[Br-] + O
viscosity [mPa·s], 101 kPa
Conditions | 293.15 K | 298.15 K | 303.15 K | 308.15 K | 313.15 K
x1 = 0.0001801, x2 = 0.0001083 | 1.02 | 0.908 | 0.822 | 0.738 | 0.667
x1 = 0.0001801, x2 = 0.0001624 | 1.024 | 0.911 | 0.824 | 0.74 | 0.67
x1 = 0.0001801, x2 = 0.0002165 | 1.028 | 0.913 | 0.825 | 0.742 | 0.672
x1 = 0.0001801, x2 = 0.0002706 | 1.036 | 0.914 | 0.827 | 0.744 | 0.674
x1 = 0.0001801, x2 = 0.0003247 | 1.045 | 0.917 | 0.828 | 0.745 | 0.676
x1 = 0.0001801, x2 = 0.0003788 | 1.051 | 0.921 | 0.832 | 0.747 | 0.677
x1 = 0.0001801, x2 = 0.0004328 | 1.057 | 0.926 | 0.835 | 0.749 | 0.68
x1 = 0.0001801, x2 = 0.0004869 | 1.062 | 0.932 | 0.837 | 0.754 | 0.683
x1 = 0.0001801, x2 = 0.000541 | 1.067 | 0.937 | 0.841 | 0.757 | 0.687
x1 = 0.0001802, x2 = 5.413e-05 | 1.018 | 0.905 | 0.819 | 0.735 | 0.666
x1 = 0.0008997, x2 = 0.0005438 | 1.057 | 0.91 | 0.821 | 0.751 | 0.678
x1 = 0.0008998, x2 = 0.0003807 | 1.045 | 0.898 | 0.81 | 0.739 | 0.668
x1 = 0.0008998, x2 = 0.0004351 | 1.051 | 0.902 | 0.814 | 0.743 | 0.67
x1 = 0.0008998, x2 = 0.0004894 | 1.053 | 0.906 | 0.818 | 0.747 | 0.674
x1 = 0.0008999, x2 = 0.000272 | 1.041 | 0.893 | 0.805 | 0.734 | 0.664
x1 = 0.0008999, x2 = 0.0003263 | 1.043 | 0.896 | 0.807 | 0.736 | 0.666
x1 = 0.0009, x2 = 0.0001632 | 1.036 | 0.889 | 0.801 | 0.729 | 0.66
x1 = 0.0009, x2 = 0.0002176 | 1.039 | 0.891 | 0.803 | 0.732 | 0.662
x1 = 0.0009001, x2 = 5.44e-05 | 1.033 | 0.884 | 0.797 | 0.725 | 0.655
x1 = 0.0009001, x2 = 0.0001088 | 1.035 | 0.886 | 0.799 | 0.727 | 0.657
x1 = 0.001798, x2 = 0.0001642 | 1.015 | 0.873 | 0.788 | 0.725 | 0.642
x1 = 0.001798, x2 = 0.000219 | 1.02 | 0.875 | 0.79 | 0.726 | 0.643
x1 = 0.001798, x2 = 0.0002737 | 1.025 | 0.878 | 0.792 | 0.728 | 0.645
x1 = 0.001798, x2 = 0.0003284 | 1.031 | 0.88 | 0.793 | 0.73 | 0.647
x1 = 0.001798, x2 = 0.0003831 | 1.034 | 0.885 | 0.797 | 0.732 | 0.648
x1 = 0.001798, x2 = 0.0004378 | 1.037 | 0.888 | 0.803 | 0.733 | 0.65
x1 = 0.001798, x2 = 0.0004925 | 1.039 | 0.892 | 0.807 | 0.736 | 0.653
x1 = 0.001798, x2 = 0.0005472 | 1.042 | 0.896 | 0.813 | 0.738 | 0.655
x1 = 0.001799, x2 = 5.475e-05 | 1.004 | 0.867 | 0.784 | 0.721 | 0.634
x1 = 0.001799, x2 = 0.0001095 | 1.01 | 0.87 | 0.785 | 0.722 | 0.639

[Cl-].[Na+] + CCCCCCCCCCCC[N+](C)(C)C.[Br-] + O
298.15 K, 101 kPa
Conditions | electrical conductivity [S/m]
x1 = 0.0001802 | 0.1161
x1 = 0.001799 | 0.8806

NCC(=O)O + CCCCCCCCCCCC[N+](C)(C)Cc1ccccc1.[Cl-] + O
electrical conductivity [S/m], 101 kPa
Conditions | 293.15 K | 298.15 K | 303.15 K | 308.15 K | 313.15 K
x1 = 0.0008876 | 0.000384 | 0.000431 | 0.000492 | 0.000549 | 0.000613
x1 = 0.001759 | 0.00074 | 0.000839 | 0.000945 | 0.00106 | 0.00118

CCCC[n+]1ccn(C)c1.N#C[S-] + CCCCCCO
101 kPa
Conditions | viscosity [mPa·s]
298.15 K, x2 = 0.1505 | 36.2
308.15 K, x2 = 0.1505 | 24.6
308.15 K, x2 = 0.453 | 13.1
308.15 K, x2 = 0.9102 | 4.42
318.15 K, x2 = 0.6307 | 6.91
318.15 K, x2 = 0.9102 | 3.41
328.15 K, x2 = 0.6962 | 4.59
328.15 K, x2 = 0.7583 | 3.92
328.15 K, x2 = 0.8512 | 3.17
338.15 K, x2 = 0.0424 | 12
338.15 K, x2 = 0.3093 | 8.15
338.15 K, x2 = 0.453 | 6.07
338.15 K, x2 = 0.5773 | 4.76
348.15 K, x2 = 0.0424 | 9.56

CCCN + CCCCCC[n+]1ccn(C)c1.F[B-](F)(F)F
298.15 K, 101 kPa
Conditions | viscosity [mPa·s]
x1 = 0.1525 | 110
x1 = 0.5052 | 29.08
x1 = 0.9012 | 1.672

From the CheMixHub ionic liquid set
